Test results from patent US10899769B2, “Imidazopiperazinone inhibitors of transcription activating proteins” (Board of Regents, The University of Texas System, priority 2018, dated 2021).

Assays:
BRD4(49-170) bromodomain = BRD4(49-170) bromodomain (Homo sapiens (Human), UniProt O60885); experiment: BRD4 AlphaScreen Assay; settings: binding to biotin-H4(1-21) Ac-K5/8/12/16
Outline: (§1)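 AlphaScreen binding of GST-bromodomain to biotin-H4(1-21) Ac-K5/8/12/16: 5 nM CBP with 20 nM peptide, or 2.5 nM BRD4 with 10 nM peptide, in 50 mM HEPES 7.5, […], 1 mM TCEP, 0.003% Tween-20. Compound preincubated 30 min, then beads 2 h, room temperature. IC50 from variable-slope fit.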

[1] = target: GST-CBP(1081-1197) bromodomain (Homo sapiens (Human), UniProt Q92793); experiment: CBP AlphaScreen Assay; settings: binding to biotin-H4(1-21) Ac-K5/8/12/16
Sequence of GST-CBP(1081-1197) bromodomain (Q92793 1081-1197): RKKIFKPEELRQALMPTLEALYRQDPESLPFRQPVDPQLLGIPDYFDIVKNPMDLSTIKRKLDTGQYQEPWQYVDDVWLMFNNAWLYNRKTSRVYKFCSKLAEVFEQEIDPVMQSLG
Outline: as §1

Row | SMILES | IC50 (BRD4(49-170) bromodomain) [nM] | IC50 [1] [nM]
1 | CC1C(=O)N(C)Cc2c(-c3c(F)ccc4cc(C5CCOCC5)ncc34)nc(C3CCOCC3)n21 (single isomer, unassigned) [Example 34b, 1-(7-Fluoro-3-(tetrahydro-2H-pyran-4-yl)isoquinolin-8-yl)-5,7-dimethyl-3-(tetrahydro-2H-pyran-4-yl)-7,8-dihydroimidazo[1,5-a]pyrazin-6(5H)-one] | 1230 | 8
2 | CC1C(=O)N(C)Cc2c(-c3cccc4nc(-c5cnn(C)c5)c(C(F)F)cc34)nc(C3CCS(=O)(=O)CC3)n21 (single isomer, unassigned) [Example 29b, 1-(3-(Difluoromethyl)-2-(1-methyl-1H-pyrazol-4-yl)quinolin-5-yl)-3-(1,1-dioxidotetrahydro-2H-thiopyran-4-yl)-5,7-dimethyl-7,8-dihydroimidazo[1,5-a]pyrazin-6(5H)-one] | 592 | 32
3 | Cc1nn(C)cc1-c1nc2cccc(-c3nc(C4CC4)n4c3CN(C)C(=O)C4C)c2cc1C(F)F (stereo not drawn) [Example 65, 3-cyclopropyl-1-(3-(difluoromethyl)-2-(1,3-dimethyl-1H-pyrazol-4-yl)quinolin-5-yl)-5,7-dimethyl-7,8-dihydroimidazo[1,5-a] pyrazin-6(5H)-one] | 426 | 17
4 | Cc1cn(-c2cc3cccc(-c4nc(C5CC5)n5c4CN(C)C(=O)C5C)c3cn2)cn1 (stereo not drawn) [Example 70, 3-cyclopropyl-5,7-dimethyl-1-(3-(4-methyl-1H-imidazol-1-yl)isoquinolin-8-yl)-7,8-dihydroimidazo[1,5-a] pyrazin-6(5H)-one] | 667 | 2
5 | CN1Cc2c(-c3cccc4cc(C5CCOCC5)ncc34)nc(C3CCOCC3)n2CC1=O [Example 99, 7-methyl-3-(tetrahydro-2H-pyran-4-yl)-1-(3-(tetrahydro-2H-pyran-4-yl)isoquinolin-8-yl)-7,8-dihydroimidazo[1,5-a] pyrazin-6(5H)-one] | 18100 | 45
6 | CCN1Cc2c(N3CCCc4cc(-c5cnn(C)c5)c(C(F)F)cc43)nc(C3CC3)n2CC1=O [Example 48, 3-cyclopropyl-1-(7-(difluoromethyl)-6-(1-methyl-1H-pyrazol-4-yl)-3,4-dihydroquinolin-1(2H)-yl)-7-ethyl-7,8-dihydroimidazo[1,5-a] pyrazin-6(5H)-one] | 17600 | 18
7 | CC(=O)N1CC(c2nc(-c3cccc4nc(-c5cnn(C)c5)c(C(F)F)cc34)c3n2C(C)C(=O)N(C)C3)C1 (stereo not drawn) [Example 19, 3-(1-Acetylazetidin-3-yl)-1-(3-(difluoromethyl)-2-(1-methyl-1H-pyrazol-4-yl)quinolin-5-yl)-5,7-dimethyl-7,8-dihydroimidazo[1,5-a]pyrazin-6(5H)-one] | 5900 | 41
8 | CC(=O)N1CCC(c2nc(-c3cccc4nc(-c5cnn(C)c5)c(C(F)F)cc34)c3n2C(C)C(=O)N(C)C3)CC1 (stereo not drawn) [Example 80, 3-(1-acetylpiperidin-4-yl)-1-(3-(difluoromethyl)-2-(1-methyl-1H-pyrazol-4-yl)quinolin-5-yl)-5,7-dimethyl-7,8-dihydroimidazo[1,5-a] pyrazin-6(5H)-one] | 2560 | 45
9 | CC1C(=O)N(C)Cc2c(-c3cccc4nc(-c5cnn(C)c5)c(C(F)F)cc34)nc(C3(C)CCOCC3)n21 (single isomer, unassigned) [Example 32a, 1-(3-(Difluoromethyl)-2-(1-methyl-1H-pyrazol-4-yl)quinolin-5-yl)-5,7-dimethyl-3-(4-methyltetrahydro-2H-pyran-4-yl)-7,8-dihydroimidazo[1,5-a]pyrazin-6(5H)-one] | ≥ 25000 | 490
10 | CC1C(=O)N(C)Cc2c(-c3cccc4nc(-c5cnn(C)c5)c(C(F)F)cc34)nc(C3CN(CC(F)F)C3)n21 (stereo not drawn) [Example 22, 3-(1-(2,2-Difluoroethyl)azetidin-3-yl)-1-(3-(difluoromethyl)-2-(1-methyl-1H-pyrazol-4-yl)quinolin-5-yl)-5,7-dimethyl-7,8-dihydroimidazo[1,5-a]pyrazin-6(5H)-one] | 4340 | 11
11 | CC1C(=O)N(C)Cc2c(-c3cccc4nc(-c5noc(=O)[nH]5)c(C(F)F)cc34)nc(C3CC3)n21 (single isomer, unassigned) [Example 45a, 3-(5-(3-Cyclopropyl-5,7-dimethyl-6-oxo-5,6,7,8-tetrahydroimidazo[1,5-a]pyrazin-1-yl)-3-(difluoromethyl)quinolin-2-yl)-1,2,4-oxadiazol-5(4H)-one] | 112 | 1
12 | CC1C(=O)N(C)Cc2c(-c3cccc4cc(-c5cn(C)cn5)ncc34)nc(C3CC3)n21 (stereo not drawn) [Example 76, 3-cyclopropyl-5,7-dimethyl-1-(3-(1-methyl-1H-imidazol-4-yl)isoquinolin-8-yl)-7,8-dihydroimidazo[1,5-a] pyrazin-6(5H)-one] | 384 | 2
13 | Cc1ncc(-c2cc3ccc(F)c(-c4nc(C5CCOCC5)n5c4CN(C)C(=O)C5C)c3cn2)s1 (single isomer, unassigned) [Example 37b, 1-(7-Fluoro-3-(2-methylthiazol-5-yl)isoquinolin-8-yl)-5,7-dimethyl-3-(tetrahydro-2H-pyran-4-yl)-7,8-dihydroimidazo[1,5-a]pyrazin-6(5H)-one] | ≥ 25000 | 647
14 | CC1C(=O)N(C)Cc2c(-c3cccc4nc(-c5cnn(C)c5)c(C(F)F)cc34)nc(C3CCN(CCF)CC3)n21 (stereo not drawn) [Example 81, 1-(3-(difluoromethyl)-2-(1-methyl-1H-pyrazol-4-yl)quinolin-5-yl)-3-(1-(2-fluoroethyl)piperidin-4-yl)-5,7-dimethyl-7,8-dihydroimidazo[1,5-a] pyrazin-6(5H)-one] | 9630 | 153
15 | CC1C(=O)N(C)Cc2c(-c3cc4c(-c5cnn(C)c5)nn(C)c4cc3F)nc(C3=CCOCC3)n21 (stereo not drawn) [Example 42, 3-(3,6-Dihydro-2H-pyran-4-yl)-1-(6-fluoro-1-methyl-3-(1-methyl-1H-pyrazol-4-yl)-1H-indazol-5-yl)-5,7-dimethyl-7,8-dihydroimidazo[1,5-a]pyrazin-6(5H)-one] | 3330 | 28
16 | Cc1ncc(-c2cc3cccc(-c4nc(C5CCOCC5)n5c4CN(C)C(=O)C5C)c3cn2)s1 (single isomer, unassigned) [Example 31a, 5,7-Dimethyl-1-(3-(2-methylthiazol-5-yl)isoquinolin-8-yl)-3-(tetrahydro-2H-pyran-4-yl)-7,8-dihydroimidazo[1,5-a]pyrazin-6(5H)-one] | 2690 | 38
17 | C[C@H]1C(=O)N(C)Cc2c(-c3cccc4nc(-c5ccn(C)n5)c(C(F)F)cc34)nc(C3CCOCC3)n21 [Example 89b, (S)-1-(3-(difluoromethyl)-2-(1-methyl-1H-pyrazol-3-yl)quinolin-5-yl)-5,7-dimethyl-3-(tetrahydro-2H-pyran-4-yl)-7,8-dihydroimidazo[1,5-a] pyrazin-6(5H)-one] | 20800 | 482
18 | CC1C(=O)N(C)Cc2c(-c3cccc4nc(-c5cnn(C)c5)c(C(F)F)cc34)nc(C3CCN(CC(F)F)CC3)n21 (stereo not drawn) [Example 78, 3-(1-(2,2-difluoroethyl)piperidin-4-yl)-1-(3-(difluoromethyl)-2-(1-methyl-1H-pyrazol-4-yl)quinolin-5-yl)-5,7-dimethyl-7,8-dihydroimidazo[1,5-a] pyrazin-6(5H)-one] | 3770 | 41
19 | C[C@H]1C(=O)N(C)Cc2c(-c3cccc4nc(-c5cnn(C)c5)c(C(F)F)cc34)nc(C3CCOCC3)n21 [Example 5b, (S)-1-(3-(difluoromethyl)-2-(1-methyl-1H-pyrazol-4-yl)quinolin-5-yl)-5,7-dimethyl-3-(tetrahydro-2H-pyran-4-yl)-7,8-dihydroimidazo[1,5-a]pyrazin-6(5H)-one] | 25000 | 2670
20 | C[C@@H]1C(=O)N(C)Cc2c(-c3cccc4cc(-c5cnn(C)c5)ncc34)nc(C3CC3)n21 [Example 111b, (R)-3-cyclopropyl-5,7-dimethyl-1-(3-(1-methyl-1H-pyrazol-4-yl)isoquinolin-8-yl)-7,8-dihydroimidazo[1,5-a] pyrazin-6(5H)-one] | 89 | 1
21 | CC1C(=O)N(C)Cc2c(-c3cccc4nc(C5=CCOCC5)c(C(F)F)cc34)nc(C3CC3)n21 (stereo not drawn) [Example 9, 3-Cyclopropyl-1-(3-(difluoromethyl)-2-(3,6-dihydro-2H-pyran-4-yl)quinolin-5-yl)-5,7-dimethyl-7,8-dihydroimidazo[1,5-a]pyrazin-6(5H)-one] | 366 | 3
22 | CC1C(=O)N(C)Cc2c(-c3cccc4nc(-c5cnn(C)c5)c(C(F)F)cc34)nc(C3CCN(CC(F)(F)F)CC3)n21 (stereo not drawn) [Example 77, 1-(3-(difluoromethyl)-2-(1-methyl-1H-pyrazol-4-yl)quinolin-5-yl)-5,7-dimethyl-3-(1-(2,2,2-trifluoroethyl)piperidin-4-yl)-7,8-dihydroimidazo [1,5-a] pyrazin-6(5H)-one] | 2890 | 34
23 | CC1C(=O)N(C)Cc2c(-c3c(F)ccc4nc(-c5cnn(C)c5)c(C(F)F)cc34)nc(C3CCOCC3)n21 (single isomer, unassigned) [Example 36a, 1-(3-(Difluoromethyl)-6-fluoro-2-(1-methyl-1H-pyrazol-4-yl)quinolin-5-yl)-5,7-dimethyl-3-(tetrahydro-2H-pyran-4-yl)-7,8-dihydroimidazo[1,5-a]pyrazin-6(5H)-one] | 624 | 2
24 | Cc1cn(-c2nc3cccc(-c4nc(C5CC5)n5c4CN(C)C(=O)C5C)c3cc2C(F)F)cn1 (stereo not drawn) [Example 11, 3-cyclopropyl-1-(3-(difluoromethyl)-2-(4-methyl-1H-imidazol-1-yl)quinolin-5-yl)-5,7-dimethyl-7,8-dihydroimidazo[1,5-a]pyrazin-6(5H)-one] | 268 | 4
